Assays:
calf thymus DNA = experiment: Binding of photoproduct to nucleic acid (dark reaction after pre-irradiation)
Description: The nucleic acid binding properties of photoproduct were investigated with calf thymus DNA. 200 μg/ml of ^3H-AMDMIP (1×10^5 CPM/ml) in Taq buffer was irradiated at room temperature with either the CE-III device or the PTI device. This irradiation was performed for 15 minutes in the absence of nucleic acid. Following the irradiations, 200 μl of the irradiated solution was mixed with 200 μl of 1000 μg/ml DNA solution in Taq buffer. Several identical samples were prepared in this manner. One set of samples was allowed to react with the DNA for 2 hours at room temperature. The other set of samples was subjected to 30 cycles of heating and cooling by placing the samples in a thermal cycler [Perkin-Elmer Cetus DNA Thermal Cycler (Part No. N8010150); each cycle involved 93° C. for 30 seconds, 55° C. for 30 seconds and 72° C. for 1 minute]. When the DNA reactions were complete, all samples were analyzed for DNA-associated tritium counts (CPM) by following the flow chart outlined in FIG. 17.
The DNA-associated counts are given in terms of adducts per 100 base pairs in Table 10. For calculation purposes, these adducts are reported as if they represented monomers of AMDMIP. Regardless of the accuracy of this approximation, the process of irradiating ^3H-AMDMIP clearly results in a tritiated product which associates (i.e. binds) with DNA in the absence of subsequent activating wavelengths of electromagnetic radiation. The extent of the association is shown in Table 10 to depend upon the reaction conditions.

HIV 115-mer PCR product = experiment: Photoproduct sterilization of PCR (HIV 115-mer carryover); assay type: biochemical; conditions: 30 cycles; for sterilization of PCR (Example 52): 100 μl/ml
Source text: FIG. 36 describes a series of oligonucleotides that can be used with the PCR amplification technique. Two primers are described (SK-38 and SK-39) that are complementary to a segment of the HIV genome. Each primer is complementary to sequences at the […] of one of each of two strands of a 115 base pair long segment of the HIV genome. In addition, FIG. 36 describes a crosslinkable probe molecule which is capable of hybridizing and crosslinking to one strand of the 115-mer PCR product. Repeated thermal cycling of SK-38 and SK-39 in the presence of Taq polymerase, appropriate reagents, and a target polynucleotide containing at least the 115-mer segment bounded by SK-38/SK-39, will result in the synthesis of both strands of the 115-mer. Therefore, PCR amplification will occur, with both strands of the 115-mer accumulating geometrically. This is in contrast to the oligonuceleotides described in FIG. 26. Only one primer (SK-39) is described in FIG. 26 which is capable hybridizing to the 3′ end of the 71-mer target oligonucleotide (HRI-55). The lack of a second primer in the system of oligonucleotides described by FIG. 26 prevents this system from being amplified geometrically. Repeated thermal cycling of HRI-55 and SK-39 in the presence of Taq polymerase and appropriate reagents will result in the linear accumulation of the complement of HRI-55.
[…] Aliquots of AMDIIIP photoproduct and the unirradiated compound were added (by pipetting) at 50, 100, 200 and 300 μg/ml to 1 μl aliquots of a 10^6 delution of PCR product copies. PCR product was provided by a) preparing template, b) providing template, c) providing PCR reagents, d) providing polymerase, e) mixing PCR reagents, template, and polymerase to initiate PCR, f) cycling to synthesize PCR product.
Step a): Template Preparation. The templates were derived from actual patient samples. Ficoll-Hypaque separated peripheral blood mononuclear cells (PBMCs) are prepared from individuals enrolled in a longitudinal AIDS study. Approximately 1×10^6 cells are added to 10 ml of RPMI containing 10% fetal calf serum. The cells are pelleted by centrifugation at 20×g for 5 minutes and washed twice with 10 ml PBS. The cell pellet is resuspended in a solution of 50 mM KCl, 10 mM Tris-HCl (pH 8.3), 2.5 mM MgCl2 and subsequently lysed by the addition of 0.5% Tween 20 and 0.5% NP40. Samples are digested with 60 μg/ml proteinase K (Sigma) for 1 hour at 60° C. […]
Again, to evaluate the efficacy of this method of sterilization, a subsequent polymerase chain reaction was carried out for 30 cycles in the presence of α-^32P-dCTP. PCR product was then quantitated by running gels (see above), cutting the bands (detected by autoradiography) and counting the bands on a commercial scintillation counter. […]

[1] = tested on: Molt-4 human genomic DNA (human beta globin gene); experiment: Sterilization of genomic target before PCR (beta globin 174 bp); assay type: biochemical
Description: Four samples containing 1 μg of Molt-4 human genomic DNA target were prepared for PCR with primers KM 29 (5′-[…]) and HRI-12 (5′-[…]). These primers give a 174 bp product within the human beta globin gene. All four samples contained AMDMIP at 100 μg/ml, and were irradiated for 0, 5, 10 or 15 minutes prior to PCR amplification. […] Amplification were carried out in 1×Taq buffer (50 mM KCl, 10 mM Tris pH 8.5, 2.5 mM MgCl2, 200 μg/ml gelatin), 175 μM each dNTP, 20 μM primer with 2.5 units of Taq polymerase and 100 μg/ml AMDMIP present during amplification. PCR was carried out for 30 cycles; one cycle=30 sec at 94° C. (denaturing), 30 sec at 55° C. (primer annealing), and 60 sec at 72° C. (extension). α-[…] was used as an internal label. After amplification, the samples were analyzed for product by PAGE followed by autoradiography.

Cc1oc2ccc3c(C)cc(=O)oc3c2c1CN [AMDMIP, 4′-Aminomethyl-4,5′-dimethylisopsoralen]
ADDUCTS PER 1000 BASE PAIRS (calf thymus DNA; device CE-II, pre-irradiated 15 mins. without nucleic acid, dark reaction room temp.): 4.4
ADDUCTS PER 1000 BASE PAIRS (calf thymus DNA; device CE-III, pre-irradiated 15 mins. without nucleic acid, dark reaction thermally cycled): 24.3
ADDUCTS PER 1000 BASE PAIRS (calf thymus DNA; device PTI, pre-irradiated 15 mins. without nucleic acid, dark reaction thermally cycled): 5.7
ADDUCTS PER 1000 BASE PAIRS (calf thymus DNA; no irradiation, dark reaction room temp. 2 hours): 1.1
ADDUCTS PER 1000 BASE PAIRS (calf thymus DNA; no irradiation, dark reaction thermally cycled 30 cycles): 0.9
sterilization of PCR (Example 52) (HIV 115-mer PCR product; AMDMIP irradiated in CE-III device 15 minutes): extensive sterilization
sterilization of PCR (Example 52) (HIV 115-mer PCR product; AMDMIP irradiated in PTI device 15 minutes): little sterilization
sterilization of PCR (Example 52) (HIV 115-mer PCR product; unirradiated AMDMIP): PCR product is clearly evident
sterilization of PCR (HIV 115-mer PCR product; unirradiated compound at 50, 100, 200, 300 μg/ml): no sterilization
impact of unirradiated AMDMIP on amplification ([1]; 100 μg/ml (data not shown)): no significant impact on amplification
amplification of genomic target irradiated in presence of AMDMIP ([1]; AMDMIP 100 μg/ml, irradiated 0, 5, 10 or 15 minutes before PCR, 30 cycles): no amplification of the sterilized genomic target

Source: patent US6680025B2, “Device and method for photoactivation” (Cerus Corporation, priority 1989, dated 2004)
